Drawing on patent US20240174690A1, “ANNULATED 2-AMINO-3-CYANO THIOPHENES AND DERIVATIVES FOR THE TREATMENT OF CANCER” (BOEHRINGER INGELHEIM INTERNATIONAL GMBH, priority 2021, published 2024), this text covers IC50 for 17 molecules.

Assay [1] deals with LOVO cells. As to the kind of experiment: LOVO CTG proliferation assay (120 h) (CRC, G13D). The class given is cell-based. The following applies: Homo sapiens, CTG 120 h. A digest of the protocol:
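IC50 comes from a four-parameter fit of CellTiter-Glo viability, expressed as RLU relative to DMSO wells. Compound exposure lasted 120 h in LOVO cells seeded the day before at 1000 cells/well in DMEM with 10% fetal calf serum.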

Assay [2] has as its target KRAS (G12D)::SOS1 (Homo sapiens (Human), UniProt P01116, G12D). As to the kind of experiment: KRAS::SOS1 AlphaScreen binding assay, KRAS G12D. In short, it runs like this: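 KRAS 1-169 (biotinylated avi-tag) with GST-SOS1 564-1049 and 10 µM GDP in PBS/0.1% BSA/0.05% Tween 20: WT and G13D 10 nM each with 10 nM SOS1; G12D 10 nM and G12C 7.5 nM with 5 nM SOS1. After 30 min, glutathione acceptor/streptavidin donor beads were added for 60 min at RT in the dark, then AlphaScreen read; 4-parameter IC50.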

The test system of assay [3] is SAS cells. As to the kind of experiment: SAS CTG proliferation assay (120 h) (HNSCC, wt amplified). The assay is classed as cell-based. A digest of the protocol: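 Viability measured by CellTiter-Glo luminescence, normalized to DMSO wells, after 120 h compound treatment of SAS cells. Cells grown in DMEM:F12 plus 10% FCS at 300 cells per well, dosed the day after seeding. Four-parameter fit gives IC50.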

Sequence of KRAS (G12D)::SOS1 (P01116 other isoform, or with tags, fused parts or gaps G12D): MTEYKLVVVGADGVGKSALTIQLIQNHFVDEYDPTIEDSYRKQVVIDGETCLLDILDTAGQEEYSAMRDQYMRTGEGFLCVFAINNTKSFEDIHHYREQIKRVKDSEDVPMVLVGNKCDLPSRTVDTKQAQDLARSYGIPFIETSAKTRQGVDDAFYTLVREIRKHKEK

Consider `C[C@H](Oc1cc(-n2cc3ccn(C[C@H]4CCOC4)c(=O)c3n2)nc(-c2noc3c2CCC[C@@]32CCCc3sc(N)c(C#N)c32)n1)[C@@H]1CCCN1C` [II-204], for which the IC50 in assay [1] was found to be 0.046 µM; in assay [2] it was 0.002 µM; in assay [3], 0.017 µM.
In the same order, the values of `C[C@H](Oc1cc(N2Cc3cnn(C)c3C2)nc(-c2onc3c2CCC[C@@]32CCCc3sc(N)c(C#N)c32)n1)[C@@H]1CCCN1C` [I-19] are 0.479 µM, 0.012 µM and 0.217 µM.
In the same order, the values of `CO[C@@H]1C[C@@H]([C@H](C)Oc2cc(N3CCN(C)C4(COC4)C3)nc(-c3noc4c3CCC[C@@]43CCCc4sc(N)c(C#N)c43)n2)N(C)C1` [II-153] are 0.283 µM, 0.002 µM and 0.199 µM.
In the same order, the values of `CO[C@H]1CCN(C)[C@@H]1[C@H](C)Oc1cc(-n2ccc(C(=O)N(C)C3COC3)n2)nc(-c2noc3c2CCC[C@@]32CCCc3sc(N)c(C#N)c32)n1` [II-199] are 0.034 µM, 0.001 µM and 0.017 µM.
Turning to `C[C@@H]1CN(c2nc(-c3noc4c3CCC[C@@]43CCCc4sc(N)c(C#N)c43)nc(O[C@@H](C)[C@@H]3C[C@@H](F)CN3C)c2F)CC2(CC2)N1` [II-158], the values for the half-inhibitory concentration (IC50) in assay [1], in assay [2] and in assay [3] were 0.084 µM, 0.002 µM and 0.585 µM, respectively.
With `C[C@H](Oc1cc(-c2ccn(Cc3ncco3)n2)nc(-c2noc3c2CCC[C@@]32CCCc3sc(N)c(C#N)c32)n1)[C@@H]1CCCN1C` [II-128], the IC50 in assay [1] was determined as 0.091 µM; in assay [2], 0.002 µM; in assay [3], 0.046 µM.
The like results for `C[C@H](NC(=O)c1ccn(-c2cc(O[C@@H](C)[C@@H]3CCCN3C)nc(-c3noc4c3CCC[C@@]43CCCc4sc(N)c(C#N)c43)n2)n1)c1ccccn1` [II-191] were, in that order, 0.013 µM, 0.001 µM and 0.01 µM.
`C[C@H](Oc1cc(N2CCNC3(COC3)C2)nc(-c2noc3c2CCC[C@@]32CCCc3sc(N)c(C#N)c32)n1)[C@@H]1C[C@@H](F)CN1C` [II-150]: the concentration for half-maximal inhibition (IC50) in assay [1] came to 0.081 µM; in assay [2], 0.001 µM; in assay [3], 0.091 µM.
Take `C[C@H](Oc1cc(N2CCN(C)C3(COC3)C2)nc(-c2noc3c2CCC[C@@]32CCCc3sc(N)c(C#N)c32)n1)[C@@H]1C[C@@H](F)CN1C` [II-148]: the IC50 in assay [1] was 0.109 µM; in assay [2] it was 0.001 µM; in assay [3], 0.421 µM.
In the same order, the values of `C[C@H](Oc1cc(-n2cc3ccn(C4CCOCC4)c(=O)c3n2)nc(-c2noc3c2CCC[C@@]32CCCc3sc(N)c(C#N)c32)n1)[C@@H]1CCCN1C` [II-206] are 0.031 µM, 0.001 µM and 0.025 µM.
The like results for `C[C@H](Oc1cc(-n2ccc(-c3cn([C@@H]4CCOC4)nn3)n2)nc(-c2noc3c2CCC[C@@]32CCCc3sc(N)c(C#N)c32)n1)[C@@H]1CCCN1C` [II-211] were, in that order, 0.04 µM, 0.001 µM and 0.017 µM.
The like results for `C[C@H](Oc1cc(-n2ccc(C(=O)N[C@@H]3CCOC3)n2)nc(-c2noc3c2CCC[C@@]32CCCc3sc(N)c(C#N)c32)n1)[C@@H]1CCCN1C` [II-192] were, in that order, 0.032 µM, 0.001 µM and 0.025 µM.
Take `C[C@H]1CNCCCN1c1cc(-c2ccn(C)n2)nc(-c2noc3c2CCC[C@@]32CCCc3sc(N)c(C#N)c32)n1` [II-140]: the values for the IC50 in assay [1], in assay [2] and in assay [3] were 5.49 µM, 0.022 µM and 0.128 µM, respectively.
In the same order, the values of `CO[C@H]1CCN(C)[C@@H]1[C@H](C)Oc1cc(-n2ccc(CC(=O)NC(C)C)n2)nc(-c2noc3c2CCC[C@@]32CCCc3sc(N)c(C#N)c32)n1` [II-183] are 0.009 µM, 0.001 µM and 0.006 µM.
In the case of `C[C@H](Oc1cc(N2C[C@H](C)N(C)[C@@H](C)C2)nc(-c2noc3c2CCC[C@@]32CCCc3sc(N)c(C#N)c32)n1)[C@@H]1CCCN1C` [II-173], the IC50 in assay [1] amounted to 1.23 µM; in assay [2] it was 0.001 µM; in assay [3], 0.751 µM.
As to `CO[C@@H]1C[C@@H]([C@H](C)Oc2cc(-c3cnn(C)n3)nc(-c3onc4c3CCC[C@@]43CCCc4sc(N)c(C#N)c43)n2)N(C)C1` [I-17], the IC50 in assay [1] worked out at 0.73 µM; in assay [2], 0.015 µM; in assay [3] it was 0.241 µM.
As for `CO[C@H]1CCN(C)[C@@H]1[C@H](C)Oc1cc(N2CCN(C)C3(CC3)C2)nc(-c2noc3c2CCC[C@@]32CCCc3sc(N)c(C#N)c32)n1` [II-186], the IC50 was found to be 0.357 µM in assay [1], 0.001 µM in assay [2] and 0.532 µM in assay [3].
